Patent US20240299373A1, “IMPROVED USE OF TRADIPITANT IN MOTION SICKNESS” (Vanda Pharmaceuticals Inc., priority 2023, published 2024)

Columns and labels:
[1] = tested on: panel of 74 other receptors, enzymes, and ion channels; assay: Selectivity panel binding; conditions: test concentration of 1 μM
Excerpt: Tradipitant is a selective neurokinin-1 (NK-1) receptor antagonist. […] By 3 different measures, tradipitant is also a potent centrally active NK-1 antagonist in vivo.

NK-2 receptor = biological target: T1, NK-2 receptor (Homo sapiens, UniProt P21452); assay: NK-2 receptor inhibition; type: binding
T1 sequence (P21452 1-398): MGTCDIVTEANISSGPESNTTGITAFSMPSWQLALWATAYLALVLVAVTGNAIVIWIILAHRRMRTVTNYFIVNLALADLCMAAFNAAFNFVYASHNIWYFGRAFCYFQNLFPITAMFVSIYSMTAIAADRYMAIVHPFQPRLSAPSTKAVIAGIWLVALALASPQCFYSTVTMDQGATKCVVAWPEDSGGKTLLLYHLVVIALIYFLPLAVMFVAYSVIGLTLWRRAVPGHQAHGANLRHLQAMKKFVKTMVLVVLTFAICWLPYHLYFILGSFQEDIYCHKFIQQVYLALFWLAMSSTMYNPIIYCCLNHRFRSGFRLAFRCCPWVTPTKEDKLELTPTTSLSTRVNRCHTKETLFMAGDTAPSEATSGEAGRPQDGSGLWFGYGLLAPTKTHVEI

NK-1 receptor = biological target: T2, NK-1 receptor (Cavia porcellus, UniProt P30547); assay: GR73632-induced vocalization in guinea pigs; type: in vivo; conditions: guinea pig
T2 construct: potency and CNS penetration of NK-1 antagonists in the guinea pig; from tissue; host or cells: brain of living Dunkin/Hartley guinea pigs
T2 sequence (P30547 whole entry): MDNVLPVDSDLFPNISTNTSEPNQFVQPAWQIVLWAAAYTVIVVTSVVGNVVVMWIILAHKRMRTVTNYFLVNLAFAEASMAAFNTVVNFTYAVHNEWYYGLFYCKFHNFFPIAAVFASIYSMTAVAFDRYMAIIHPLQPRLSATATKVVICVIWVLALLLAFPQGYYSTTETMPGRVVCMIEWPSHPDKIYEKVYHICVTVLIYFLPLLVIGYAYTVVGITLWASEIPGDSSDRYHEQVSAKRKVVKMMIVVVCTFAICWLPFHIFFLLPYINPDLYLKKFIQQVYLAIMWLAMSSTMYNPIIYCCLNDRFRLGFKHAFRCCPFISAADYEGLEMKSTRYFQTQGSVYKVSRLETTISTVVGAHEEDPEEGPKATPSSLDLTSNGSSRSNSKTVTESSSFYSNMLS
Procedure: When introduced into the brain, the NK-1 receptor agonist substance P (SP) elicits distress vocalizations in the guinea pig that can be inhibited by NK-1 antagonists.
Male Dunkin/Hartley guinea pigs (200 to 250 grams) are orally administered either vehicle or an NK-1 antagonist. Approximately 45 minutes later (for dose response studies), the animals are anesthetized and 0.1 nmol of GR73632 (SP analog) in a vehicle volume of 5 μl is injected into the cerebral ventricle at the intersection of bregma and the midline of the skull. Animals are placed in a dark testing chamber located inside of a sound attenuation cubicle and vocalizations are recorded for 30 minutes following recovery from anesthesia. The time spent vocalizing is quantified for each animal. In the duration of action study, 0.1 mg/kg of tradipitant or vehicle solution is administered orally and then 2, 4, or 7 hours later, 0.1 nmol of GR73632 is administered into the cerebral ventricle as described above. Vocalizations are recorded and quantified as indicated above. Vehicle solutions are either CMC (FIG. 4 data) or an ethanol/emulphor solution (FIGS. 5 and 6). Data is analyzed using one-tailed t-tests.

brain NK-1 receptors = assay: Occupancy of brain NK-1 receptors with tracer GR205171; type: in vivo; conditions: p.o., tracer GR205171 iv
Procedure: A tracer NK-1 antagonist compound (GR205171) is used to evaluate the ability of other NK-1 antagonists to occupy the brain NK-1 receptors. In these studies, the test compounds are administered orally and the tracer compound is administered intravenously afterward. The occupancy of the NK-1 receptors is evaluated by quantitating the amount of the tracer compound bound to the brain NK-1 receptors after increasing doses of the test compounds.

[2] = tested on: small bowel transit and gastric emptying; assay: Clinical study of gastrointestinal motility (gamma scintigraphy); type: in vivo, human; conditions: healthy subjects, 20 mg or 200 mg single oral dose; study underpowered for this parameter
Procedure: A single-center, randomized, double-blind, placebo-controlled study is conducted to investigate the effect of tradipitant on small bowel transit time. A total of 15 healthy subjects, including 12 men and 3 women between the ages of 19 and 63 years, are enrolled in the study and receive at least 1 dose of study medication. A total of 13 subjects complete the study. Subjects are randomized to receive 20 mg of tradipitant, 200 mg of tradipitant, or placebo as a single oral dose within each of 3 periods, co-administered with a capsule radiolabeled with a maximum of 1MBq ^111In. Four hours post-dose, all subjects also receive a second capsule radiolabeled with a maximum of 4MBq ^99mTc. Each subject receives all 3 doses during the study. For all dosing regimens, in vivo gamma scintigraphic studies are performed at predetermined intervals, and the following scintigraphic parameters are analyzed: onset and completion of gastric emptying, onset and completion of colon arrival, initiation and completion of small bowel transit, and initial and complete disintegration of the capsule (anatomical location and time).

motion sickness = assay: Clinical study of motion sickness prevention during sea travel; type: in vivo, human; conditions: for study participants experiencing vomiting: tradipitant arm 170 mg
Procedure: A randomized, double blind, placebo-controlled clinical study of motion sickness is conducted, in which 126 human subjects (“study participants”), each having a prior history of motion sickness, are subjected to sea travel in the Pacific Ocean under varied weather conditions. Study participants are distributed over seven (7) four-hour boat trips off the coast of Los Angeles, California, USA. For each trip, sea conditions and participant self-evaluation of symptoms of motion sickness are recorded. Among the seven trips, three are under “rough” sea conditions, conducive to producing motion sickness with wave heights above one meter. The remaining four trips are made under “calm” conditions, with wave heights less than one meter, and are less likely to produce motion sickness. Under “rough” sea conditions, 72.2% of the placebo treated patients experience vomiting compared to only 26.7% under “calm” conditions. Subjects are randomized 1:1 to receive either tradipitant 170 mg or placebo by mouth in a blinded fashion, prior to travel initiation. Participants report their symptoms at predetermined time intervals of every 30 minutes during the travel period using the Motion Sickness Severity Scale (MSSS) and other assessments. Primary end points of the study include: percentage of participants vomiting, and Motion Sickness Severity Scale (MSSS) Worst score. The MSSS is a 7 point scale ranging from 0 (“no symptoms”) to 6 (“vomiting”). An exploratory analysis is also performed to evaluate the effects of tradipitant under “calm” and “rough” seas. In the study described above in Example 3, further analysis is conducted with respect to study participants' ethnic backgrounds, in particular, whether study participants are Hispanic or non-Hispanic, e.g., white (non-Hispanic), Black or African American (non-Hispanic), American Indian and Alaska Native (non-Hispanic), Asian (non-Hispanic), Native Hawaiian and other Pacific Islander (non-Hispanic), some other race (non-Hispanic), or multi-racial (non-Hispanic). Results are analyzed based on study participants' self-reported ethnic backgrounds.

- inhibition of binding in panel of 74 other receptors, enzymes, and ion channels [1]: ≤ 50%
- inhibition at NK-2 receptor (NK-2 receptor): no significant inhibition
- suppression of agonist-induced vocalization (NK-1 receptor; 0.1 mg/kg oral, 7 hours after administration): significantly active
- duration of activity (NK-1 receptor; administered orally): exceeds 7 hours
- inhibitory activity on vocalization (NK-1 receptor; at and below 0.1 mg/kg oral): retains significant inhibitory activity
- inhibition of agonist-induced vocalization (NK-1 receptor; oral, 10, 1.0, 0.1 and 0.05 mg/kg (each p<0.001)): significant inhibition
- minimum effective dose (MED), inhibition of vocalization (NK-1 receptor; oral, p<0.001 compared to controls): 0.025 mg/kg
SMILES: O=C(c1ccccc1Cl)c1cccnc1-c1nnn(Cc2cc(C(F)(F)F)cc(C(F)(F)F)c2)c1-c1ccncc1 [Tradipitant, {2-[1-(3,5-bistrifluoromethylbenzyl)-5-pyridin-4-yl-1H-[1,2,3]triazol-4-yl]-pyridin-3-yl}-(2-chlorophenyl)-methanone]
- ED50, occupancy of brain NK-1 receptors (brain NK-1 receptors): 0.04 mg/kg
- effect on gastric emptying [2]: No effect
- % Vomiting, Difference placebo vs tradipitant (motion sickness; Calm Sea, P-value 0.3123): 8.5%
- Worst MSSS, Difference placebo vs tradipitant (motion sickness; Calm Sea, P-value 0.8271): −0.09
- Worst MSSS (motion sickness; Calm Sea, n = 44, 170 mg by mouth, placebo 3.32): 3.4
- Worst MSSS (motion sickness; Calm Sea, n = 44, 170 mg by mouth, placebo 3.32, listed as tradipitant): 3.40
- % Vomiting (motion sickness; Calm Sea, n = 44, 170 mg by mouth, placebo 26.7%): 18.2%
- % Vomiting (motion sickness; Calm Sea, n = 44, 170 mg by mouth, placebo 26.7%, listed as tradipitant): 18.2%
- study participants experiencing vomiting (motion sickness; Hispanic participants, placebo 33.3%): 4.5%
- % Vomiting, Difference placebo vs tradipitant (motion sickness; ITT, P-value 0.0039): 22.2%
- Worst MSSS, Difference placebo vs tradipitant (motion sickness; ITT, P-value 0.2936): 0.35
- Worst MSSS (motion sickness; ITT, n = 63, 170 mg by mouth, placebo 3.75): 3.40
- Worst MSSS (motion sickness; ITT, n = 63, 170 mg by mouth, placebo 3.75, listed as tradipitant): 3.4
- % Vomiting (motion sickness; ITT, n = 63, 170 mg by mouth, placebo 39.7%): 17.5%
- % Vomiting (motion sickness; ITT, n = 63, 170 mg by mouth, placebo 39.7%, listed as tradipitant): 17.5%
- % Vomiting, Difference placebo vs tradipitant (motion sickness; Rough Sea, P-value 0.0009): 56.4%
- Worst MSSS, Difference placebo vs tradipitant (motion sickness; Rough Sea, P-value 0.0235): 1.38
- Worst MSSS (motion sickness; Rough Sea, n = 19, 170 mg by mouth, placebo 4.57): 3.19
- % Vomiting (motion sickness; Rough Sea, n = 19, 170 mg by mouth, placebo 72.2%): 15.8%
- % Vomiting (motion sickness; Rough Sea, n = 19, 170 mg by mouth, placebo 72.2%, listed as tradipitant): 15.8%
- study participants experiencing vomiting (motion sickness; non-Hispanic participants, placebo 42.8%): 24.4%
